Experimental data as given in ChEMBL document CHEMBL4673219, “Novel 5,6-disubstituted pyrrolo[2,3-d]pyrimidine derivatives as broad spectrum antiproliferative agents: Synthesis, cell based assays, kinase profile and molecular docking study” (Bioorg Med Chem, 2018).
“And” between values parts separate entries of the source, which are not always exact repeats. Identical values can stand only once.

Experiments:
Assay type in all cases: functional
T47D [1] = assay: Growth inhibition of human T47D cells assessed as growth percentage at 10 uM incubated for 48 hrs by sulforhodamine B assay relative to control; details: read-out: Activity
MCF7 [2] = assay: Growth inhibition of human MCF7 cells assessed as growth percentage at 10 uM incubated for 48 hrs by sulforhodamine B assay relative to control; details: read-out: Activity
UO-31 [3] = assay: Growth inhibition of human UO-31 cells assessed as growth percentage at 10 uM incubated for 48 hrs by sulforhodamine B assay relative to control; details: read-out: Activity
SK-OV-3 [4] = assay: Growth inhibition of human SK-OV-3 cells assessed as growth percentage at 10 uM incubated for 48 hrs by sulforhodamine B assay relative to control; details: read-out: Activity
SK-MEL-28 = assay: Growth inhibition of human SK-MEL-28 cells assessed as growth percentage at 10 uM incubated for 48 hrs by sulforhodamine B assay relative to control; details: read-out: Activity
KM12 [5] = assay: Growth inhibition of human KM12 cells assessed as growth percentage at 10 uM incubated for 48 hrs by sulforhodamine B assay relative to control; details: read-out: Activity
COLO 205 = assay: Growth inhibition of human COLO 205 cells assessed as growth percentage at 10 uM incubated for 48 hrs by sulforhodamine B assay relative to control; details: read-out: Activity
CAKI-1 = assay: Growth inhibition of human CAKI-1 cells incubated for 48 hrs by sulforhodamine B assay; details: for CC50: read-out: LC50 (the source's name); for GI50: CAKI-1
UACC-62 [6] = assay: Growth inhibition of human UACC-62 cells incubated for 48 hrs by sulforhodamine B assay
SK-MEL-2 = assay: Growth inhibition of human SK-MEL-2 cells incubated for 48 hrs by sulforhodamine B assay
A549 = assay: Growth inhibition of human A549/ATCC cells incubated for 48 hrs by sulforhodamine B assay
HCT-116 [7] = assay: Antiproliferative activity against human HCT-116 cells assessed as cell growth inhibition measured after 72 hrs by MTT assay
MCF7 [8] = assay: Antiproliferative activity against human MCF7 cells assessed as cell growth inhibition measured after 72 hrs by MTT assay
DU-145 = assay: Growth inhibition of human DU-145 cells assessed as growth percentage at 100 uM incubated for 48 hrs by sulforhodamine B assay relative to control; details: read-out: Activity
PC-3 = assay: Growth inhibition of human PC-3 cells assessed as growth percentage at 100 uM incubated for 48 hrs by sulforhodamine B assay relative to control; details: read-out: Activity
UO-31 [9] = assay: Growth inhibition of human UO-31 cells assessed as growth percentage at 100 uM incubated for 48 hrs by sulforhodamine B assay relative to control; details: read-out: Activity
OVCAR-8 = assay: Growth inhibition of human OVCAR-8 cells assessed as growth percentage at 100 uM incubated for 48 hrs by sulforhodamine B assay relative to control; details: read-out: Activity
SF-295 = assay: Growth inhibition of human SF-295 cells assessed as growth percentage at 100 uM incubated for 48 hrs by sulforhodamine B assay relative to control; details: read-out: Activity
K562 = assay: Growth inhibition of human K562 cells assessed as growth percentage at 100 uM incubated for 48 hrs by sulforhodamine B assay relative to control; details: read-out: Activity
MDA-MB-468 = assay: Growth inhibition of human MDA-MB-468 cells assessed as growth percentage at 1 uM incubated for 48 hrs by sulforhodamine B assay relative to control; details: read-out: Activity
MDA-MB-231 = assay: Growth inhibition of human MDA-MB-231/ATCC cells assessed as growth percentage at 1 uM incubated for 48 hrs by sulforhodamine B assay relative to control; details: read-out: Activity
SN12C [10] = assay: Growth inhibition of human SN12C cells assessed as growth percentage at 1 uM incubated for 48 hrs by sulforhodamine B assay relative to control; details: read-out: Activity
RXF 393 = assay: Growth inhibition of human RXF 393 cells assessed as growth percentage at 1 uM incubated for 48 hrs by sulforhodamine B assay relative to control; details: read-out: Activity
SK-OV-3 [11] = assay: Growth inhibition of human SK-OV-3 cells assessed as growth percentage at 1 uM incubated for 48 hrs by sulforhodamine B assay relative to control; details: read-out: Activity
HT-29 = assay: Growth inhibition of human HT-29 cells assessed as growth percentage at 1 uM incubated for 48 hrs by sulforhodamine B assay relative to control; details: read-out: Activity
Hs-578T = assay: Growth inhibition of human Hs-578T cells assessed as growth percentage at 0.1 uM incubated for 48 hrs by sulforhodamine B assay relative to control; details: read-out: Activity
OVCAR-3 [12] = assay: Growth inhibition of human OVCAR-3 cells assessed as growth percentage at 0.1 uM incubated for 48 hrs by sulforhodamine B assay relative to control; details: read-out: Activity
HCT-15 [13] = assay: Growth inhibition of human HCT-15 cells assessed as growth percentage at 0.1 uM incubated for 48 hrs by sulforhodamine B assay relative to control; details: read-out: Activity
HCT-116 [14] = assay: Growth inhibition of human HCT-116 cells assessed as growth percentage at 0.1 uM incubated for 48 hrs by sulforhodamine B assay relative to control; details: read-out: Activity
NCI-H522 = assay: Growth inhibition of human NCI-H522 cells assessed as growth percentage at 0.1 uM incubated for 48 hrs by sulforhodamine B assay relative to control; details: read-out: Activity
T47D [15] = assay: Growth inhibition of human T47D cells assessed as growth percentage at 0.01 uM incubated for 48 hrs by sulforhodamine B assay relative to control; details: read-out: Activity
SN12C [16] = assay: Growth inhibition of human SN12C cells assessed as growth percentage at 0.01 uM incubated for 48 hrs by sulforhodamine B assay relative to control; details: read-out: Activity
786-0 = assay: Growth inhibition of human 786-0 cells assessed as growth percentage at 0.01 uM incubated for 48 hrs by sulforhodamine B assay relative to control; details: read-out: Activity
OVCAR-3 [17] = assay: Growth inhibition of human OVCAR-3 cells assessed as growth percentage at 0.01 uM incubated for 48 hrs by sulforhodamine B assay relative to control; details: read-out: Activity
IGROV-1 = assay: Growth inhibition of human IGROV-1 assessed as growth percent at 0.01 uM incubated for 48 hrs by sulforhodamine B assay relative to control; details: read-out: Activity
UACC-62 [18] = assay: Growth inhibition of human UACC-62 cells assessed as growth percentage at 0.01 uM incubated for 48 hrs by sulforhodamine B assay relative to control; details: read-out: Activity
SK-MEL-5 = assay: Growth inhibition of human SK-MEL-5 cells assessed as growth percentage at 0.01 uM incubated for 48 hrs by sulforhodamine B assay relative to control; details: read-out: Activity
KM12 [19] = assay: Growth inhibition of human KM12 cells assessed as growth percentage at 0.01 uM incubated for 48 hrs by sulforhodamine B assay relative to control; details: read-out: Activity
HCT-15 [20] = assay: Growth inhibition of human HCT-15 cells assessed as growth percentage at 0.01 uM incubated for 48 hrs by sulforhodamine B assay relative to control; details: read-out: Activity

Work on `Nc1nc2[nH]c(CN3CCN(c4cc(Cl)cc(Cl)c4)CC3)c(CN3CCN(c4cc(Cl)cc(Cl)c4)CC3)c2c(=O)[nH]1` yielded a growth at 10 µM (T47D [1]) of 62.9%, a growth at 10 µM (MCF7 [2]) of 23.4% and a growth at 10 µM (UO-31 [3]) of 75.1%. The growth at 10 µM (SK-OV-3 [4]) was 90.2%, the growth at 10 µM (SK-MEL-28) was 90.8% and the growth at 10 µM (KM12 [5]) was 64.2%. For the same molecule, the growth at 10 µM (COLO 205) was 10.9%, the TGI (CAKI-1; 48 h) was 18000 nM and 1800 nM and the CC50 (CAKI-1; 48 h) was 43700 nM and 4370 nM. It also gave a GI50 (CAKI-1; Homo sapiens) of 5100 nM, a GI50 (UACC-62 [6]; Homo sapiens, UACC-62, 48 h) of 1800 nM and a TGI (UACC-62 [6]; Homo sapiens, UACC-62, 48 h) of 3420 nM. The GI50 (SK-MEL-2; Homo sapiens, SK-MEL-2, 48 h) was 2210 nM, the TGI (SK-MEL-2; Homo sapiens, SK-MEL-2, 48 h) was 4120 nM and the TGI (A549; Homo sapiens, A549) was 3730 nM. It also gave a GI50 (A549; Homo sapiens, A549, 48 h) of 1820 nM, a GI50 (HCT-116 [7]) of 2890 nM and a GI50 (MCF7 [8]) of 4020 nM. The growth at 100 µM (DU-145) was -92%, the growth at 100 µM (PC-3) was -81% and the growth at 100 µM (UO-31 [9]) was -57%. For the same molecule, the growth at 100 µM (OVCAR-8) was -44%, the growth at 100 µM (SF-295) was -33% and the growth at 100 µM (K562) was 3%. The growth at 1 µM (MDA-MB-468) was 85%, the growth at 1 µM (MDA-MB-231) was 101% and the growth at 1 µM (SN12C [10]) was 95%. For the same molecule, the growth at 1 µM (RXF 393) was 85%, the growth at 1 µM (SK-OV-3 [11]) was 102% and the growth at 1 µM (HT-29) was 91%. For the same molecule, the growth at 0.1 µM (Hs-578T) was 88%, the growth at 0.1 µM (OVCAR-3 [12]) was 106% and the growth at 0.1 µM (HCT-15 [13]) was 95%. The growth at 0.1 µM (HCT-116 [14]) was 99%, the growth at 0.1 µM (NCI-H522) was 97% and the growth at 0.01 µM (T47D [15]) was 91%. The growth at 0.01 µM (SN12C [16]) was 100%, the growth at 0.01 µM (786-0) was 94% and the growth at 0.01 µM (OVCAR-3 [17]) was 105%. The growth at 0.01 µM (IGROV-1) was 104%, the growth at 0.01 µM (UACC-62 [18]) was 101% and the growth at 0.01 µM (SK-MEL-5) was 96%. It also gave a growth at 0.01 µM (KM12 [19]) of 101% and a growth at 0.01 µM (HCT-15 [20]) of 98%.
For `CCCCCCCC(=O)Nc1nc2[nH]c(CN3CCN(Cc4cccc(F)c4)CC3)c(CN3CCN(Cc4cccc(F)c4)CC3)c2c(=O)[nH]1`, the growth at 10 µM (T47D [1]) was -84.2%, the growth at 10 µM (MCF7 [2]) was -72.9% and the growth at 10 µM (UO-31 [3]) was -96.5%. It also gave a growth at 10 µM (SK-OV-3 [4]) of -61%, a growth at 10 µM (SK-MEL-28) of -97% and a growth at 10 µM (KM12 [5]) of -88.9%. The growth at 10 µM (COLO 205) was -90.9%, the GI50 (CAKI-1; Homo sapiens) was 1320 nM and the TGI (CAKI-1; Homo sapiens, CAKI-1, 48 h) was 2610 nM. The CC50 (CAKI-1; Homo sapiens, CAKI-1, 48 h) was 5180 nM, the GI50 (UACC-62 [6]; 48 h) was 1680 nM and the TGI (UACC-62 [6]; 48 h) was 3150 nM. The CC50 (UACC-62 [6]; 48 h, read-out: LC50 (the source's name)) was 590 nM and 5900 nM, the GI50 (UACC-62 [6]; Homo sapiens, UACC-62, 48 h) was 1800 nM and the TGI (UACC-62 [6]; Homo sapiens, UACC-62, 48 h) was 3420 nM. For the same molecule, the GI50 (SK-MEL-2; 48 h) was 1570 nM, the TGI (SK-MEL-2; 48 h) was 3030 nM and the GI50 (SK-MEL-2; Homo sapiens, SK-MEL-2, 48 h) was 2210 nM. For the same molecule, the TGI (SK-MEL-2; Homo sapiens, SK-MEL-2, 48 h) was 4120 nM, the CC50 (SK-MEL-2; Homo sapiens, SK-MEL-2, read-out: LC50 (the source's name)) was 5870 nM and the GI50 (A549; 48 h) was 340 nM. The LC50 (A549; Homo sapiens, A549) was 4360 nM, the TGI (A549; Homo sapiens, A549) was 1240 nM and the GI50 (A549; Homo sapiens, A549, 48 h) was 343 nM. For the same molecule, the GI50 (HCT-116 [7]) was 2250 nM, the GI50 (MCF7 [8]) was 2150 nM and the growth at 100 µM (DU-145) was -83%. It also gave a growth at 100 µM (PC-3) of -88%, a growth at 100 µM (UO-31 [9]) of -81% and a growth at 100 µM (OVCAR-8) of -81%. It also gave a growth at 100 µM (SF-295) of -81%, a growth at 100 µM (K562) of -1% and a growth at 1 µM (MDA-MB-468) of 29%. For the same molecule, the growth at 1 µM (MDA-MB-231) was 33%, the growth at 1 µM (SN12C [10]) was 76% and the growth at 1 µM (RXF 393) was 29%. The growth at 1 µM (SK-OV-3 [11]) was 107%, the growth at 1 µM (HT-29) was -26% and the growth at 0.1 µM (Hs-578T) was 96%. For the same molecule, the growth at 0.1 µM (OVCAR-3 [12]) was 102%, the growth at 0.1 µM (HCT-15 [13]) was 94% and the growth at 0.1 µM (HCT-116 [14]) was 93%. For the same molecule, the growth at 0.1 µM (NCI-H522) was 94%, the growth at 0.01 µM (T47D [15]) was 95% and the growth at 0.01 µM (SN12C [16]) was 97%. For the same molecule, the growth at 0.01 µM (786-0) was 98%, the growth at 0.01 µM (OVCAR-3 [17]) was 100% and the growth at 0.01 µM (IGROV-1) was 98%. The growth at 0.01 µM (UACC-62 [18]) was 97%, the growth at 0.01 µM (SK-MEL-5) was 100% and the growth at 0.01 µM (KM12 [19]) was 96%. It also gave a growth at 0.01 µM (HCT-15 [20]) of 98%.
